Tests used:
ΔF508-CFTR [1] = biological target: T1, ΔF508-CFTR (Homo sapiens, UniProt P13569, DEL508-508); experiment: CFTR cell surface levels using HRP-tagged ΔF508-CFTR expressing CFBE cells, in the presence of a co-corrector; assay type: cell-based; details: HRP-tagged ΔF508-CFTR expressing CFBE cells, in the presence of 3 μM co-corrector; for EC50: read-out: EC50
T1 construct: host or cells: CFBE41o-, doxycycline-inducible
Outline: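 Cells were seeded with 0.5 μg/mL doxycycline and held 68 h at 37 °C. Test compounds plus 3 μM co-corrector (final 0.1% DMSO) were then added for 20 h at 33 °C. Washed cells received HRP substrate, and luminescence was normalized between DMSO and 3 μM co-corrector controls.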

ΔF508-CFTR [2] = biological target: T1, ΔF508-CFTR; experiment: CFTR cell surface levels using HRP-tagged ΔF508-CFTR expressing CFBE cells, intrinsic corrector capacity; assay type: cell-based; details: HRP-tagged ΔF508-CFTR CFBE41o- cells, compounds alone (intrinsic corrector capacity), 20 hours at 33° C.; for % Activation: positive control 3 μM corrector; for EC50: read-out: EC50
Outline: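 Here the cells express ΔF508-CFTR with horseradish peroxidase inserted in extracellular loop 4, so only rescued channel at the surface gives luminescent signal. Compounds act on their own, 20 h at the reduced temperature of 33 °C; values are percent activity relative to DMSO and a 3 μM corrector.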

T1 sequence (P13569 with tags, fused parts or gaps DEL508-508): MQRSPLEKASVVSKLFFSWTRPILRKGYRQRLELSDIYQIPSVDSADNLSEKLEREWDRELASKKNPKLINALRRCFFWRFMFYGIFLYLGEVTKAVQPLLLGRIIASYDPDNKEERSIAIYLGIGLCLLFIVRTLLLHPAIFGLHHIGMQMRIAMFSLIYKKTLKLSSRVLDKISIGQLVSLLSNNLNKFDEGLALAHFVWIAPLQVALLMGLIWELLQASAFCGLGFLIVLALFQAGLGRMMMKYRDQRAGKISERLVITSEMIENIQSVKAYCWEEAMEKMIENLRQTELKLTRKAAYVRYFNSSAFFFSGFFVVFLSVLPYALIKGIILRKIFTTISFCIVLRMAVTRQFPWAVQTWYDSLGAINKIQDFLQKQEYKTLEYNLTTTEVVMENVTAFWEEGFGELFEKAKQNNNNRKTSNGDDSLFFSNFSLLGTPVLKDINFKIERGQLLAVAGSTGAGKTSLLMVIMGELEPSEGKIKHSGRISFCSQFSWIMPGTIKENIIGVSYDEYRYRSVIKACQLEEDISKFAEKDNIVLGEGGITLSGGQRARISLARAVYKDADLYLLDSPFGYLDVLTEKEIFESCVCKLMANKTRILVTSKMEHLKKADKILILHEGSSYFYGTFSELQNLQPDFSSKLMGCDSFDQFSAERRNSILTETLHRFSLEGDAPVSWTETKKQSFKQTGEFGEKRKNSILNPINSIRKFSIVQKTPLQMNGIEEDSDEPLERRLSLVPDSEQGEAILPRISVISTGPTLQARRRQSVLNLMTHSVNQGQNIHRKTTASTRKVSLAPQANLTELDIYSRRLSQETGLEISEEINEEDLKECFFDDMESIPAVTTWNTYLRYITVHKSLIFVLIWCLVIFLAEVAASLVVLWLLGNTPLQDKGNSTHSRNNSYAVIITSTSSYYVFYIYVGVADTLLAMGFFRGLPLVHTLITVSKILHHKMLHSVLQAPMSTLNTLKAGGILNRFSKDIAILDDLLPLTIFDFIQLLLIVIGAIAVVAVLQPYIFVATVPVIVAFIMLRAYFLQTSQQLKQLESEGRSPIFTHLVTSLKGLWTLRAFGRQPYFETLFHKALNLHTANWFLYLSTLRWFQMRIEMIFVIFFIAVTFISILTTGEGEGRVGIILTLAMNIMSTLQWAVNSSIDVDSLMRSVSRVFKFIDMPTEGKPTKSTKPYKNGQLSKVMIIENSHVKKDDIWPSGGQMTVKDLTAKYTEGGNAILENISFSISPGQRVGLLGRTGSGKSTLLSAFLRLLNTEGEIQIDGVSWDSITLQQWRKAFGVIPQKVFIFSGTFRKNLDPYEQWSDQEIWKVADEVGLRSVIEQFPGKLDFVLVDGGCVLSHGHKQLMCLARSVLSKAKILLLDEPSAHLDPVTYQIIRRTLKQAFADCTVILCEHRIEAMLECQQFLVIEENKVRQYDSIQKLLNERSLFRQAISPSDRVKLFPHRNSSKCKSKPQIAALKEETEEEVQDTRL

Row | SMILES | % Activation (ΔF508-CFTR [1]) [%] | EC50 (ΔF508-CFTR [1]) [nM] | % Activation (ΔF508-CFTR [2]) [%] | EC50 (ΔF508-CFTR [2]) [nM]
1 | Cc1nn(-c2cccc(F)c2)c2nc(C(=O)O)cc(-c3ccc(N4CCOCC4)nc3)c12 [compound 101, 1-(3-fluorophenyl)-3-methyl-4[6-(morpholin-4-yl)pyridin-3-yl]-1H-pyrazolo[3,4-b]pyridine-6-carboxylic acid] | 331.65 | 999 | 143.75 | 1610
2 | Cc1nn(-c2cccc(C(F)(F)F)c2)c2nc(C(=O)O)cc(-c3ccc(N4CCOCC4)nc3)c12 [compound 102, 3-methyl-4-[6-(morpholin-4-yl)pyridin-3-yl]-1-[3-(trifluoromethyl)phenyl]-1H-pyrazolo[3,4-b]pyridine-6-carboxylic acid] | 384 | 949 | 153 | 1040
3 | CC(C)(C)OC(=O)N1CCCC1c1nn(-c2ccccc2)c2nc(C(=O)O)cc(-c3ccc(N4CCOCC4)nc3)c12 (stereo not shown) [compound 103, 3-[1-(tert-butoxycarbonyl)pyrrolidin-2-yl]-4-[6-(morpholin-4-yl)pyridin-3-yl]-1-phenyl-1H-pyrazolo[3,4-b]pyridine-6-carboxylic acid] | 302 | 694 | 115.65 | 703
4 | Cc1nn(-c2ccc(F)cc2F)c2nc(C(=O)O)cc(-c3ccc(N4CCOCC4)nc3)c12 [compound 104, 1-(2,4-difluorophenyl)-3-methyl-4-[6-(morpholin-4-yl)pyridin-3-yl]-1H-pyrazolo[3,4-b]pyridine-6-carboxylic acid] | 308.55 | 1010 | 130.4 | 1240
5 | Cc1nn(-c2ccc(F)cc2F)c2nc(C(=O)O)cc(-c3ccc(N4CCOCC4)cc3)c12 [compound 105, 1-(2,4-difluorophenyl)-3-methyl-4-[4-(morpholin-4-yl)phenyl]-1H-pyrazolo[3,4-b]pyridine-6-carboxylic acid] | 383.25 | 879 | 179.05 | 949
6 | Cc1nn(C2CCCC2)c2nc(C(=O)O)cc(-c3ccc(N4CCOCC4)nc3)c12 [compound 106, 1-cyclopentyl-3-methyl-4[6-(morpholin-4-yl)pyridin-3-yl]-1H-pyrazolo[3,4-b]pyridine-6-carboxylic acid] | 237.45 | 2620 | 73 | 3340
7 | Cc1nn(-c2ccccc2)c2nc(C(=O)O)cc(-c3ccc(N4CCN(CCO)CC4)cc3)c12 [compound 107] | 164.5 | 3340 | 20.98 | > 10000
8 | Cc1nn(-c2ccccc2)c2nc(C(=O)O)cc(-c3ccc(N4CCC(F)(F)CC4)cc3)c12 [compound 108, 4-[4-(4,4-difluoropiperidin-1-yl)phenyl]-3-methyl-1-phenyl-1H-pyrazolo[3,4-b]pyridine-6-carboxylic acid] | 329.7 | 752 | 145.5 | 904
9 | Cc1nn(-c2ccccc2)c2nc(C(=O)O)cc(-c3ccc(N4CCC(F)(F)C4)cc3)c12 [compound 111, 4-[4-(3,3-difluoropyrrolidin-1-yl)phenyl]-3-methyl-1-phenyl-1H-pyrazolo[3,4-b]pyridine-6-carboxylic acid] | 299.8 | 424 | 110.34 | 459
10 | Cc1nn(-c2ccccc2)c2nc(C(=O)O)cc(-c3ccc(NC4COC4)cc3)c12 [compound 112, 3-methyl-4-{4-[(oxetan-3-yl)amino]phenyl}-1-phenyl-1H-pyrazolo[3,4-b]pyridine-6-carboxylic acid] | 378.1 | 2370 | 200.55 | 2470
11 | Cc1nn(-c2ccccc2)c2nc(C(=O)O)cc(-c3ccc(N4CC(C)OC(C)C4)cc3)c12 (stereo not shown) [compound 114, 4-[4-(2,6-dimethylmorpholin-4-yl)phenyl]-3-methyl-1-phenyl-1H-pyrazolo[3,4-b]pyridine-6-carboxylic acid] | 460.85 | 1240 | 251.05 | 806
12 | Cc1nn(-c2ccccc2)c2nc(C(=O)O)cc(-c3ccc(N(C)C4CCC4)cc3)c12 [compound 115, 4-{4-[cyclobutyl(methyl)amino]phenyl}-3-methyl-1-phenyl-1H-pyrazolo[3,4-b]pyridine-6-carboxylic acid] | 354 | 1280 | 152.3 | 1870
13 | Cc1nn(-c2ccccc2)c2nc(C(=O)O)cc(-c3ccc(N4C[C@@H](O)[C@H](O)C4)cc3)c12 [compound 116, 4-{4-[(3R,4R)-3,4-dihydroxypyrrolidin-1-yl]phenyl}-3-methyl-1-phenyl-1H-pyrazolo[3,4-b]pyridine-6-carboxylic acid] | 262.7 | 3340 | 81.72 | 3340
14 | CC(C)c1nn(C2CCN(CC(F)(F)F)CC2)c2nc(C(=O)O)cc(-c3ccc(N4CCOCC4)cc3)c12 [compound 117, 4-[4-(morpholin-4-yl)phenyl]-3-(propan-2-yl)-1-[1-(2,2,2-trifluoroethyl)piperidin-4-yl]-1H-pyrazolo[3,4-b]pyridine-6-carboxylic acid] | 229.45 | 765 | 70.77 | 1100
15 | Cc1nn(-c2ccccc2)c2nc(C(=O)O)cc(N3CCOCC3)c12 [compound 118, 3-methyl-4-(morpholin-4-yl)-1-phenyl-1H-pyrazolo[3,4-b]pyridine-6-carboxylic acid] | 165.25 | 3340 | 26.575 | 6670
16 | Cc1nn(-c2ccccc2)c2nc(C(=O)O)cc(-c3ccc(N4CCOC(C)(C)C4)cc3)c12 [compound 119, 4-[4-(2,2-dimethylmorpholin-4-yl)phenyl]-3-methyl-1-phenyl-1H-pyrazolo[3,4-b]pyridine-6-carboxylic acid] | 413.2 | 624 | 207.25 | 915
17 | CC(C)c1nn(C2CCOC2)c2nc(C(=O)O)cc(-c3ccc(N4CCOCC4)cc3)c12 (stereo not shown) [compound 120, 4-[4-(morpholin-4-yl)phenyl]-1-(oxolan-3-yl)-3-(propan-2-yl)-1H-pyrazolo[3,4-b]pyridine-6-carboxylic acid] | 231.45 | 3140 | 70.235 | 3340
18 | CC(C)c1nn(-c2cccc(N3CCOCC3)c2)c2nc(C(=O)O)cc(-c3ccc(N4CCOCC4)cc3)c12 [compound 121, 1-[3-(morpholin-4-yl)phenyl]-4-[4-(morpholin-4-yl)phenyl]-3-(propan-2-yl)-1H-pyrazolo[3,4-b]pyridine-6-carboxylic acid] | 603.1 | 758 | 401.5 | 528
19 | Cc1nn(-c2ccccc2)c2nc(C(=O)O)cc(-c3ccc(N4CC(O)C4)cc3)c12 [compound 124, 4-[4-(3-hydroxyazetidin-1-yl)phenyl]-3-methyl-1-phenyl-1H-pyrazolo[3,4-b]pyridine-6-carboxylic acid] | 371.1 | 1880 | 190.5 | 3080

Source: patent publication US9796711B2, “Substituted pyrazolo[3,4-b]pyridin-6-carboxylic acids and method of use” (AbbVie S.àr.l., priority 2015, dated 2017)
